What was measured:
Type in all cases: in vivo
[1] = system: Diabrotica balteata (Corn root worm); assay: Example B1: Diabrotica balteata (Corn root worm), sprayed maize sprouts; conditions: 96 h, application rate 200 ppm, L2 larvae, 4 days after infestation, read-out: control in at least one of the two categories (mortality or growth inhibition)
Description: Example B1: Diabrotica balteata (Corn root worm)
Maize sprouts placed onto an agar layer in 24-well microtiter plates were treated with aqueous test solutions prepared from 10′000 ppm DMSO stock solutions by spraying. After drying, the plates were infested with L2 larvae (6 to 10 per well). The samples were assessed for mortality and growth inhibition in comparison to untreated samples 4 days after infestation.
(§1) The following compounds gave an effect of at least 80% control in at least one of the two categories (mortality or growth inhibition) at an application rate of 200 ppm: […]

[2] = system: Chilo suppressalis (Striped rice stemborer); assay: Example B4: Chilo suppressalis (Striped rice stemborer), artificial diet; conditions: 144 h, application rate 200 ppm, L2 larvae, 6 days after infestation, read-out: control in at least one of the three categories (mortality, anti-feedant effect, or growth inhibition)
Description: Example B4: Chilo suppressalis (Striped rice stemborer) 24-well microtiter plates with artificial diet were treated with aqueous test solutions prepared from 10′000 ppm DMSO stock solutions by pipetting. After drying, the plates were infested with L2 larvae (6-8 per well). The samples were assessed for mortality, anti-feeding effect, and growth inhibition in comparison to untreated samples 6 days after infestation. Control of Chilo suppressalis by a test sample is given when at least one of the categories mortality, anti-feedant effect, and growth inhibition is higher than the untreated sample.

[3] = system: Plutella xylostella (Diamond back moth); assay: Example B5: Plutella xylostella (Diamond back moth), artificial diet, 24-well; conditions: 192 h, application rate 200 ppm, eggs, 8 days after infestation, read-out: control in at least one of the two categories (mortality or growth inhibition)
Description: Example B5: Plutella xylostella (Diamond back moth)
24-well microtiter plates with artificial diet were treated with aqueous test solutions prepared from 10′000 ppm DMSO stock solutions by pipetting. After drying, Plutella eggs were pipetted through a plastic stencil onto a gel blotting paper and the plate was closed with it. The samples were assessed for mortality and growth inhibition in comparison to untreated samples 8 days after infestation.
as §1

[4] = system: Spodoptera littoralis (Egyptian cotton leaf worm); assay: Example B9: Spodoptera littoralis (Egyptian cotton leaf worm), sprayed cotton leaf discs; conditions: foliar, 72 h, application rate 200 ppm, L1 larvae, 3 days after infestation, read-out: control in at least one of the three categories (mortality, anti-feedant effect, or growth inhibition)
Description: Example B9: Spodoptera littoralis (Egyptian cotton leaf worm)
Cotton leaf discs were placed onto agar in 24-well microtiter plates and sprayed with aqueous test solutions prepared from 10′000 ppm DMSO stock solutions. After drying the leaf discs were infested with five L1 larvae. The samples were assessed for mortality, anti-feeding effect, and growth inhibition in comparison to untreated samples 3 days after infestation. Control of Spodoptera littoralis by a test sample is given when at least one of the categories mortality, anti-feedant effect, and growth inhibition is higher than the untreated sample.

CC(NC(=O)c1cc(C(F)(F)F)cc(C(F)(F)C2CC2)c1)c1ncnn1-c1ccc(C#N)cn1 (centres unmarked) [P4, N-[1-[2-(5-cyano-2-pyridyl)-1,2,4-triazol-3-yl]ethyl]-3-[cyclopropyl(difluoro)methyl]-5-(trifluoromethyl)benzamide]
≥ 80%: percent control (mortality or growth inhibition) at 200 ppm [1] | percent control (mortality, anti-feedant effect or growth inhibition) at 200 ppm [2] | percent control (mortality or growth inhibition) at 200 ppm [3] | percent control (mortality, anti-feedant effect or growth inhibition) at 200 ppm [4]

CC(NC(=O)c1cc(C(F)(F)F)nc(C2(C#N)CC2)c1)c1ncnn1-c1ncc(OC(F)F)cn1 (centres unmarked) [P8, 2-(1-cyanocyclopropyl)-N-[1-[2-[5-(difluoromethoxy)pyrimidin-2-yl]-1,2,4-triazol-3-yl]ethyl]-6-(trifluoromethyl) pyridine-4-carboxamide]
≥ 80%: percent control (mortality or growth inhibition) at 200 ppm [1] | percent control (mortality, anti-feedant effect or growth inhibition) at 200 ppm [2] | percent control (mortality or growth inhibition) at 200 ppm [3] | percent control (mortality, anti-feedant effect or growth inhibition) at 200 ppm [4]

CC(NC(=O)c1cc(C(F)(F)F)nc(C2(C#N)CC2)c1)c1ncnn1-c1ncc(OCC(F)F)cn1 (centres unmarked) [P10, 2-(1-cyanocyclopropyl)-N-[1-[2-[5-(2,2-difluoroethoxy)pyrimidin-2-yl]-1,2,4-triazol-3-yl]ethyl]-6-(trifluoromethyl) pyridine-4-carboxamide]
≥ 80%: percent control (mortality or growth inhibition) at 200 ppm [1] | percent control (mortality, anti-feedant effect or growth inhibition) at 200 ppm [2] | percent control (mortality or growth inhibition) at 200 ppm [3] | percent control (mortality, anti-feedant effect or growth inhibition) at 200 ppm [4]

CC(NC(=O)c1cc(C(F)(F)F)cc(C(F)(F)C2CC2)c1)c1ncnn1-c1ncc(OCC(F)F)cn1 (centres unmarked) [P11, 3-[cyclopropyl(difluoro)methyl]-N-[1-[2-[5-(2,2-difluoroethoxy)pyrimidin-2-yl]-1,2,4-triazol-3-yl]ethyl]-5-(trifluoromethyl) benzamide]
≥ 80%: percent control (mortality or growth inhibition) at 200 ppm [1] | percent control (mortality, anti-feedant effect or growth inhibition) at 200 ppm [2] | percent control (mortality or growth inhibition) at 200 ppm [3] | percent control (mortality, anti-feedant effect or growth inhibition) at 200 ppm [4]

CC(NC(=O)c1cc(C2CC2C(F)(F)F)cc(C(F)(F)F)c1)c1ncnn1-c1ccc(C#N)cn1 (centres unmarked) [P13, N-[1-[2-(5-cyano-2-pyridyl)-1,2,4-triazol-3-yl]ethyl]-3-(trifluoromethyl)-5-[2-(trifluoromethyl)cyclopropyl]benzamide]
≥ 80%: percent control (mortality or growth inhibition) at 200 ppm [1] | percent control (mortality, anti-feedant effect or growth inhibition) at 200 ppm [2] | percent control (mortality or growth inhibition) at 200 ppm [3] | percent control (mortality, anti-feedant effect or growth inhibition) at 200 ppm [4]

CC(NC(=O)c1cc(C2CC2)nc(C(F)(F)F)c1)c1ncnn1-c1ccc(C#N)cn1 (centres unmarked) [P15, N-[1-[2-(5-cyano-2-pyridyl)-1,2,4-triazol-3-yl]ethyl]-2-cyclopropyl-6-(trifluoromethyl)pyridine-4-carboxamide]
≥ 80%: percent control (mortality or growth inhibition) at 200 ppm [1] | percent control (mortality, anti-feedant effect or growth inhibition) at 200 ppm [2] | percent control (mortality or growth inhibition) at 200 ppm [3] | percent control (mortality, anti-feedant effect or growth inhibition) at 200 ppm [4]

CC(NC(=O)c1cc(C(F)(F)F)cc(S(=O)(=O)C(F)(F)F)c1)c1ncnn1-c1ncc(OCC(F)F)cn1 (centres unmarked) [P16, N-[1-[2-[5-(2,2-difluoroethoxy)pyrimidin-2-yl]-1,2,4-triazol-3-yl]ethyl]-3-(trifluoromethyl)-5-(trifluoromethylsulfonyl) benzamide]
≥ 80%: percent control (mortality or growth inhibition) at 200 ppm [1] | percent control (mortality, anti-feedant effect or growth inhibition) at 200 ppm [2] | percent control (mortality or growth inhibition) at 200 ppm [3] | percent control (mortality, anti-feedant effect or growth inhibition) at 200 ppm [4]

CC(NC(=O)c1cc(C(F)(F)F)nc(C2(C#N)CC2)c1)c1ncnn1-c1ccc(OC(F)F)cn1 (centres unmarked) [P17, 2-(1-cyanocyclopropyl)-N-[1-[2-[5-(difluoromethoxy)-2-pyridyl]-1,2,4-triazol-3-yl]ethyl]-6-(trifluoromethyl) pyridine-4-carboxamide]
≥ 80%: percent control (mortality or growth inhibition) at 200 ppm [1] | percent control (mortality, anti-feedant effect or growth inhibition) at 200 ppm [2] | percent control (mortality or growth inhibition) at 200 ppm [3] | percent control (mortality, anti-feedant effect or growth inhibition) at 200 ppm [4]

CC(NC(=O)c1cc(C(F)(F)F)cc(C2(C#N)CC2)c1)c1ncnn1-c1ccc(C#N)cn1 (centres unmarked) [P18, 3-(1-cyanocyclopropyl)-N-[1-[2-(5-cyano-2-pyridyl)-1,2,4-triazol-3-yl]ethyl]-5-(trifluoromethyl) benzamide]
≥ 80%: percent control (mortality, anti-feedant effect or growth inhibition) at 200 ppm [2] | percent control (mortality or growth inhibition) at 200 ppm [3] | percent control (mortality, anti-feedant effect or growth inhibition) at 200 ppm [4]

CC(NC(=O)c1cc(C(F)(F)F)cc(C(F)(F)C2CC2)c1)c1ncnn1-c1ccc(OC(F)F)cn1 (centres unmarked) [P19, 3-[cyclopropyl(difluoro)methyl]-N-[1-[2-[5-(difluoromethoxy)-2-pyridyl]-1,2,4-triazol-3-yl]ethyl]-5-(trifluoromethyl) benzamide]
≥ 80%: percent control (mortality, anti-feedant effect or growth inhibition) at 200 ppm [2] | percent control (mortality or growth inhibition) at 200 ppm [3] | percent control (mortality, anti-feedant effect or growth inhibition) at 200 ppm [4]

CC(NC(=O)c1cc(C(F)(F)F)cc(C(F)(F)C2CC2)c1)c1ncnn1-c1ncc(OCC(F)(F)F)cn1 (centres unmarked) [P20, 3-[cyclopropyl(difluoro)methyl]-N-[1-[2-[5-(2,2,2-trifluoroethoxy)pyrimdin-2-yl]-1,2,4-triazol-3-yl]ethyl]-5-(trifluoromethyl) benzamide]
≥ 80%: percent control (mortality, anti-feedant effect or growth inhibition) at 200 ppm [2] | percent control (mortality or growth inhibition) at 200 ppm [3] | percent control (mortality, anti-feedant effect or growth inhibition) at 200 ppm [4]

CC(NC(=O)c1cc(C2CC2)cc(C(F)(F)F)c1)c1ncnn1-c1ncc(OCC(F)F)cn1 (centres unmarked) [P23, 3-cyclopropyl-N-[1-[2-[5-(2,2-difluoroethoxy)pyrimidin-2-yl]-1,2,4-triazol-3-yl]ethyl]-5-(trifluoromethyl) benzamide]
≥ 80%: percent control (mortality or growth inhibition) at 200 ppm [1] | percent control (mortality, anti-feedant effect or growth inhibition) at 200 ppm [2] | percent control (mortality or growth inhibition) at 200 ppm [3] | percent control (mortality, anti-feedant effect or growth inhibition) at 200 ppm [4]

CC(NC(=O)c1cc(C(F)(F)F)cc(C2(C#N)CC2)c1)c1ncnn1-c1ccc(OC(F)F)cn1 (centres unmarked) [P24, 3-(1-cyanocyclopropyl)-N-[1-[2-[5-(difluoromethoxy)-2-pyridyl]-1,2,4-triazol-3-yl]ethyl]-5-(trifluoromethyl) benzamide]
≥ 80%: percent control (mortality or growth inhibition) at 200 ppm [1] | percent control (mortality, anti-feedant effect or growth inhibition) at 200 ppm [2] | percent control (mortality or growth inhibition) at 200 ppm [3] | percent control (mortality, anti-feedant effect or growth inhibition) at 200 ppm [4]

CC(NC(=O)c1cc(C(F)(F)F)cc(C2(C#N)CC2)c1)c1ncnn1-c1ncc(OCC(F)(F)F)cn1 (centres unmarked) [P25, 3-(1-cyanocyclopropyl)-N-[1-[2-[5-(2,2,2-trifluoroethoxy)pyrimidin-2-yl]-1,2,4-triazol-3-yl]ethyl]-5-(trifluoromethyl) benzamide]
≥ 80%: percent control (mortality, anti-feedant effect or growth inhibition) at 200 ppm [2] | percent control (mortality or growth inhibition) at 200 ppm [3] | percent control (mortality, anti-feedant effect or growth inhibition) at 200 ppm [4]

CC(NC(=O)c1cc(C(F)(F)F)cc(C2(C#N)CC2)c1)c1ncnn1-c1ncc(OC(F)F)cn1 (centres unmarked) [P26, 3-(1-cyanocyclopropyl)-N-[1-[2-[5-(difluoromethoxy)pyrimidin-2-yl]-1,2,4-triazol-3-yl]ethyl]-5-(trifluoromethyl) benzamide]
≥ 80%: percent control (mortality, anti-feedant effect or growth inhibition) at 200 ppm [2] | percent control (mortality or growth inhibition) at 200 ppm [3] | percent control (mortality, anti-feedant effect or growth inhibition) at 200 ppm [4]

CC(NC(=O)c1cc(C(F)(F)F)nc(C2(C#N)CC2)c1)c1ncnn1-c1ncc(OCC(F)(F)F)cn1 (centres unmarked) [P30, 2-(1-cyanocyclopropyl)-N-[1-[2-[5-(2,2,2-trifluoroethoxy)pyrimidin-2-yl]-1,2,4-triazol-3-yl]ethyl]-6-(trifluoromethyl) pyridine-4-carboxamide]
≥ 80%: percent control (mortality or growth inhibition) at 200 ppm [3] | percent control (mortality, anti-feedant effect or growth inhibition) at 200 ppm [4]

CC(NC(=O)c1cc(C(F)(F)F)cc(C2(C#N)CC2)c1)c1ncnn1-c1ncc(OCC(F)F)cn1 (centres unmarked) [P31, 3-(1-cyanocyclopropyl)-N-[1-[2-[5-(2,2-difluoroethoxy)pyrimidin-2-yl]-1,2,4-triazol-3-yl]ethyl]-5-(trifluoromethyl) benzamide]
≥ 80%: percent control (mortality, anti-feedant effect or growth inhibition) at 200 ppm [2] | percent control (mortality or growth inhibition) at 200 ppm [3]

Source: patent US20220183294A1, “PESTICIDALLY ACTIVE AZOLE AMIDE COMPOUNDS” (SYNGENTA CROP PROTECTION AG, priority 2019, published 2022)
